Each structure is given as a SMILES string.

For 17 compounds, inhibition results are on record in ChEMBL document CHEMBL5665443, “Enzyme Inhibitor Single Concentration assay results for EUbOPEN Chemogenomics Library” (2024).

Details in all cases: Compound Concentration 10.0 uM, Hit No
Experiment [1] concerns the target DNA-3-methyladenine glycosylase (Homo sapiens) (UniProt P29372).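 Further: enzyme assay where MPG cuts a quenched duplex DNA oligonucleotide probe, paired with APE1 for strand incision and turnover, read as fluorescence at 594 nm.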
Description: Inhibition of MPG by quantifying inhibition of MPG-mediated cleavage and dissociation of quenched duplex DNA oligonucleotides, measured as fluorescence at 594 nm. To generate a functional strand incision and increase turn-over this assay is coupled to APE1.
Experiment [2] has as its target T1, Single-strand selective monofunctional uracil DNA glycosylase (Homo sapiens) (UniProt Q53HV7).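 Further: enzymatic SMUG1 assay coupled with APE1, reading fluorescence at 594 nm released when a quenched double-stranded DNA oligonucleotide substrate is cleaved and separated.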
T1 sequence (whole entry): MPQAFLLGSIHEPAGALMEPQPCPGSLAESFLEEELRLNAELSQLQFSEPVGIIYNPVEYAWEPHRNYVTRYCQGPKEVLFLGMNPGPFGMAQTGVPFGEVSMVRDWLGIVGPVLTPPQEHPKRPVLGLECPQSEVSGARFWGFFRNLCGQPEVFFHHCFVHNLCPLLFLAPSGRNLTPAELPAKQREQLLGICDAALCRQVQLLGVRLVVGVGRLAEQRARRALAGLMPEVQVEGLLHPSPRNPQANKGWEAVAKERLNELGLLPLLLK
Description: Inhibition of SMUG1 by quantifying inhibition of SMUG1-mediated cleavage and dissociation of quenched duplex DNA oligonucleotides, measured as fluorescence at 594 nm. To generate a functional strand incision and increase turn-over this assay is coupled to APE1.

Experiment [3] deals with G/T mismatch-specific thymine DNA glycosylase (Homo sapiens) (UniProt Q13569).
Description: Inhibition of TDG by quantifying inhibition of TDG-mediated cleavage and dissociation of quenched duplex DNA oligonucleotides, measured as fluorescence at 594 nm. To generate a functional strand incision and increase turn-over this assay is coupled to APE1.
The target of experiment [4] is T2, Endonuclease III-like protein 1 (Homo sapiens) (UniProt P78549).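 Further: enzyme assay tracking NTHL1 cutting and release of a quenched double-stranded DNA oligo substrate, read as fluorescence at 594 nm.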
T2 sequence (whole entry): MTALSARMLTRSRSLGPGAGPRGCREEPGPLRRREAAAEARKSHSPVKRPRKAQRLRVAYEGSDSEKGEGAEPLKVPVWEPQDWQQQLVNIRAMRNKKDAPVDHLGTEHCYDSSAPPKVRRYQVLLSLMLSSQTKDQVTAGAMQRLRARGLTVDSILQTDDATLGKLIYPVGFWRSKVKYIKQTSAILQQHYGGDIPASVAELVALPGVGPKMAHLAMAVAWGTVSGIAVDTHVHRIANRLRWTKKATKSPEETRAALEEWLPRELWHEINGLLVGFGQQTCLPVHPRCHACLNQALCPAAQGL
Description: Inhibition of NTHL1 by quantifying inhibition of NTHL1-mediated cleavage and dissociation of quenched duplex DNA oligonucleotides, measured as fluorescence at 594 nm.

In experiment [5] the target is T3, Endonuclease 8-like 2 (Homo sapiens) (UniProt Q969S2).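 Further: fluorescence at 594 nm reports NEIL2 cutting and release of a quenched double-stranded DNA oligo substrate, reduced signal read as inhibition.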
T3 sequence (whole entry): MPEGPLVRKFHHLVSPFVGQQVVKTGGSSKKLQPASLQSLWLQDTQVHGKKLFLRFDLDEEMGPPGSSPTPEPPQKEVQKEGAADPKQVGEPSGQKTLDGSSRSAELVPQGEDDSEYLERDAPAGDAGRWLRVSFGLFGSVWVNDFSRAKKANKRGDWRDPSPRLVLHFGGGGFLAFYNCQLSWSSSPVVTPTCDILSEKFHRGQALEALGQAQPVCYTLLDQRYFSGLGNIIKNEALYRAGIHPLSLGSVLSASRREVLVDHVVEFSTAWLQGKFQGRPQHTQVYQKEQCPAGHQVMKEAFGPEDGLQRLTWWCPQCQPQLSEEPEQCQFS
Description: Inhibition of NEIL2 by quantifying inhibition of NEIL2-mediated cleavage and dissociation of quenched duplex DNA oligonucleotides, measured as fluorescence at 594 nm.

Experiment [6] addresses Methyl-CpG-binding domain protein 4 (Homo sapiens) (UniProt O95243).
Description: Inhibition of MBD4 by quantifying inhibition of MBD4-mediated cleavage and dissociation of quenched duplex DNA oligonucleotides, measured as fluorescence at 594 nm. To generate a functional strand incision and increase turn-over this assay is coupled to APE1.
The target of experiment [7] is T4, Adenine DNA glycosylase (Homo sapiens) (UniProt Q9UIF7).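 Further: human MUTYH activity read as 594 nm fluorescence from cleavage and release of a quenched DNA duplex, coupled with APE1 for strand incision, lower signal meaning inhibition.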
T4 sequence (whole entry): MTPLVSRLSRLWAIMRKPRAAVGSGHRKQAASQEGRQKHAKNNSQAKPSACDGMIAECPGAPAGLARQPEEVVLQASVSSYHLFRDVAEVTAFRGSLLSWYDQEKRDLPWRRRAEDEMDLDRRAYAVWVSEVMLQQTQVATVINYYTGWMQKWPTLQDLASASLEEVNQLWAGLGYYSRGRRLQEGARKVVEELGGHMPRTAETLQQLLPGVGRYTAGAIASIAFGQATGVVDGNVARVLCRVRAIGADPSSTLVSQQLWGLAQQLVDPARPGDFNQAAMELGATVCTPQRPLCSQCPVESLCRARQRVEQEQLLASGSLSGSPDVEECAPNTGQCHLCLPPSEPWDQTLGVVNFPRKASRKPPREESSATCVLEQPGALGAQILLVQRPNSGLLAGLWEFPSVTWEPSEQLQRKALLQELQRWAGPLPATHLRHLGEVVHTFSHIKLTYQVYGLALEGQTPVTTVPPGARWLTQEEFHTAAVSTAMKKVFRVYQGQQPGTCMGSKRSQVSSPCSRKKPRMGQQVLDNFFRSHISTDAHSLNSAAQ
Description: Inhibition of MUTYH by quantifying inhibition of MUTYH-mediated cleavage and dissociation of quenched duplex DNA oligonucleotides, measured as fluorescence at 594 nm. To generate a functional strand incision and increase turn-over this assay is coupled to APE1.

The target of experiment [8] is Endonuclease 8-like 1 (Homo sapiens) (UniProt Q96FI4).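 Further: fluorescence at 594 nm from quenched duplex DNA oligonucleotides released by NEIL1 cleavage and strand separation, reported as reduction of this enzyme activity.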
Description: Inhibition of NEIL1 by quantifying inhibition of NEIL1-mediated cleavage and dissociation of quenched duplex DNA oligonucleotides, measured as fluorescence at 594 nm.
For experiment [9], the target named is Uracil-DNA glycosylase (Homo sapiens) (UniProt P13051).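 Further: UNG excision on a quenched double-stranded DNA oligo probe, with APE1 added for strand incision and turnover, read as fluorescence at 594 nm as strands separate.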
Chain of Uracil-DNA glycosylase (Homo sapiens) (P13051 whole entry): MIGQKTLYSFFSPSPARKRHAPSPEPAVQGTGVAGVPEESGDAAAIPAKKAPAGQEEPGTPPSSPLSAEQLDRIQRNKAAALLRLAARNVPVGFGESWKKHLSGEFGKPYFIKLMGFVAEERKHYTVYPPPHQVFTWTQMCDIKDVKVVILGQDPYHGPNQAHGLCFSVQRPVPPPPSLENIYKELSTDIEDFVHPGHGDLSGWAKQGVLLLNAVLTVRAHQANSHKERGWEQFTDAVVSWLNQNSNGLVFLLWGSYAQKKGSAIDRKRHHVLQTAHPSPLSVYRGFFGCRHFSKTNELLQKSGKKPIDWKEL
Description: Inhibition of UNG by quantifying inhibition of UNG-mediated cleavage and dissociation of quenched duplex DNA oligonucleotides, measured as fluorescence at 594 nm. To generate a functional strand incision and increase turn-over this assay is coupled to APE1.

Chain of G/T mismatch-specific thymine DNA glycosylase (Homo sapiens) (Q13569 whole entry): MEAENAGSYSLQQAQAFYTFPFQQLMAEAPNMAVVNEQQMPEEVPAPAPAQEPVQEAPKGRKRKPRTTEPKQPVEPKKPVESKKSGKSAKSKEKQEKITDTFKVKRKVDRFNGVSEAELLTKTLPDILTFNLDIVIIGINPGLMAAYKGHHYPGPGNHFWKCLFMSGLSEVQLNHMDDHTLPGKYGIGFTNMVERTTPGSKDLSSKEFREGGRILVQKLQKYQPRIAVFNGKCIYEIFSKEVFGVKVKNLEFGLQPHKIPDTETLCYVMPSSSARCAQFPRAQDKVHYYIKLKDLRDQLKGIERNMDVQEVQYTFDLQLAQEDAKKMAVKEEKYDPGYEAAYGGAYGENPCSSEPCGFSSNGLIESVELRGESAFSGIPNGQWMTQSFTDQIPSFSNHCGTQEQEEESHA
Chain of Endonuclease 8-like 1 (Homo sapiens) (Q96FI4 whole entry): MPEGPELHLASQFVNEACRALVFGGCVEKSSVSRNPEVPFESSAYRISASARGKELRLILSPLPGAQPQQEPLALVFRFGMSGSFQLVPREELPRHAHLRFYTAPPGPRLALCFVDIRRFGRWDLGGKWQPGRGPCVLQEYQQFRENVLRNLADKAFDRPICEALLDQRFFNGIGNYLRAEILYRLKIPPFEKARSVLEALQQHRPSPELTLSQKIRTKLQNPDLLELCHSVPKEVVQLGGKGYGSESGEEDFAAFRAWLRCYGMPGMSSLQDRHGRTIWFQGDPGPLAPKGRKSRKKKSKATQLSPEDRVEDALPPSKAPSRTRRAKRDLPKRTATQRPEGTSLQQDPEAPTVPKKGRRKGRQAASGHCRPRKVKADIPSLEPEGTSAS
Chain of Methyl-CpG-binding domain protein 4 (Homo sapiens) (O95243 whole entry, the tested form may be a part): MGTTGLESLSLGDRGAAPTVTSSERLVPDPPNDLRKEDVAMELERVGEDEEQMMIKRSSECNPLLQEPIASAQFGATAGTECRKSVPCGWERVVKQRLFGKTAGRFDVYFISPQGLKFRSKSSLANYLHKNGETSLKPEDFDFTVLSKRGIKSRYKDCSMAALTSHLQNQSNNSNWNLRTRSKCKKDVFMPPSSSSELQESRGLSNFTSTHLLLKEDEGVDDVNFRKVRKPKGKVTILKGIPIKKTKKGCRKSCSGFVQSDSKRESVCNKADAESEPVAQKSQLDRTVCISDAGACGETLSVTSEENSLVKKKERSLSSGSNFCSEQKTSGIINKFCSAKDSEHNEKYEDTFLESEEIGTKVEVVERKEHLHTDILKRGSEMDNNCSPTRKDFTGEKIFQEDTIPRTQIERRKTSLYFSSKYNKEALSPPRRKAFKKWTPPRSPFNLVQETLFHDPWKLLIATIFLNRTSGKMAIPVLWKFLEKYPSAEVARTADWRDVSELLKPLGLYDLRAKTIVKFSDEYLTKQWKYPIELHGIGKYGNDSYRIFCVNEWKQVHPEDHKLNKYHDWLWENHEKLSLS
Chain of DNA-3-methyladenine glycosylase (Homo sapiens) (P29372 whole entry): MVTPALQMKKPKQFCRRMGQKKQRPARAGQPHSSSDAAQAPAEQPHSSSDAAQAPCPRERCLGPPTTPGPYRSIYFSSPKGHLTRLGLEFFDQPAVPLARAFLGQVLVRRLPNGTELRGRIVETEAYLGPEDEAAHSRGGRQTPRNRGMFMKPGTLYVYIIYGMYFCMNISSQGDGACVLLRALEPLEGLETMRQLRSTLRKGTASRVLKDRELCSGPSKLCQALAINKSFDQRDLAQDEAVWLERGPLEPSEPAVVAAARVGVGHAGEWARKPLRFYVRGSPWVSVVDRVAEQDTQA

Regarding `CN[C@@H](C)C/C=C/c1cncc(OC(C)C)c1`, the inhibition is -3.71% in [1]; -1.2% in experiment [2]; 4.54% in experiment [3]; 4.7% in experiment [4]; 6.78% in experiment [5]; 1.46% in experiment [6]. For the same compound, the inhibition in experiment [7] was 16.8%; in experiment [8] it was -3.1%; in [9], -5.51%.

With `COCc1nc2cnc3cc(-c4c(C)noc4C)c(OC[C@H]4CCNC4)cc3c2n1[C@H](C)c1ccccc1`, the inhibition was -8.22% in experiment [1]; -7.21% in experiment [2]; 54.7% in [3]; -9.18% in experiment [4]; -1.25% in [5]; 57.4% in experiment [6]. Besides, the inhibition in experiment [7] was 2.41%; in [8], -6.95%; in experiment [9], -1.93%.

Take `N[C@@]1(C(=O)O)CC[C@H]2[C@H](C(=O)O)[C@H]21`: the inhibition in [1] was -1.43%; in experiment [2] it was 2.53%; in experiment [3], 13.1%; in experiment [4], 27.8%; in experiment [5] it was -1.37%; in experiment [6], 2.62%. The inhibition was 4.77% in experiment [7], 5.05% in experiment [8] and -8.38% in experiment [9].

For `C=CC(=O)Nc1cccc(C(=O)Nc2ccc(Nc3cc(-c4[nH]c(S)nc4C)ccn3)cc2)c1`, the inhibition was 19.6% in experiment [1]; 16.9% in [2]; 102% in experiment [3]; -6.89% in [4]; 8.04% in [5]; 23.5% in [6]. The results for the inhibition in [7], in experiment [8] and in [9] were 61%, 5.55% and 3.19%, respectively.

For `CN(C)CCCc1cc(C(=O)Nc2ccc(-c3ccncc3)cc2)ccc1O`, the inhibition in [1] worked out at 5.48%; in [2], 1.23%; in experiment [3], 22.9%; in experiment [4] it was 12.1%; in [5], 8.82%; in [6], 15.3%. Moreover, the inhibition in experiment [7] is 5.24%; in experiment [8], 0.602%; in experiment [9], -0.815%.

In the case of `COC(=O)N1CCN(C(=O)Cc2ccc(Cl)c(Cl)c2)C(CN2CCCC2)C1` (stereo not drawn), the inhibition was -2.31% in [1]; -9.51% in experiment [2]; -7.07% in experiment [3]; 19.6% in [4]; 0.414% in experiment [5]; 11.3% in experiment [6]. Also, the inhibition in experiment [7] is 4.69%; in experiment [8], 4.16%; in [9], -7.49%.

On to `O=S1(=O)NCN(C2CC2)c2ccc(F)cc21`, for which the inhibition was 3.15% in [1]; -1.26% in experiment [2]; 10.8% in experiment [3]; 10.5% in experiment [4]; 8.57% in [5]; 0.854% in experiment [6]. The values for the inhibition in experiment [7], in experiment [8] and in experiment [9] were 6.74%, 3.86% and -3.37%, respectively.

In the case of `CC[C@H]1CN(c2nc(N)c(C(N)=O)nc2Cl)CCN1C1CCN(Cc2ccc(Cl)cc2)CC1`, the inhibition in [1] is -5.95%; in experiment [2], -7.08%; in experiment [3], 2.57%; in [4] it was 24.5%; in experiment [5], 3.47%; in experiment [6], -2.17%. The inhibition in experiment [7] was -3.97%; in experiment [8] it was 5.05%; in experiment [9] it was -8.52%.

`NCCc1cccs1`: the inhibition in experiment [1] was -5.51%; in experiment [2], -0.24%; in [3], 6.37%; in [4], 8.82%; in [5], 9.33%; in [6] it was 2.05%. Further, the results for the inhibition in experiment [7], in experiment [8] and in [9] were -1.84%, 7.57% and -3.89%, respectively.

On to `CNc1nc(-c2ccc3c(N)n[nH]c3c2)cc(N2C[C@@H](C(=O)NC3CCCCC3)CC[C@H]2C)n1`, for which the inhibition in [1] was 23.1%; in experiment [2], 20.7%; in [3] it was 57.1%; in [4], -2%; in experiment [5] it was -5.15%; in experiment [6], 21.4%. The inhibition in experiment [7] is 25.6%; in [8] it was 3.84%; in experiment [9], 5.37%.

Regarding `COc1cc(C(=O)N(CCC2CCCN2C)C/C(C)=C/c2ccccc2F)cc(OC)c1OC` (stereo not drawn), the inhibition in experiment [1] was -9.88%; in experiment [2] it was -3.01%; in experiment [3], 0.239%; in [4], -5.21%; in experiment [5], -1.62%; in experiment [6] it was -5.37%. Further, the inhibition was -4.18% in [7], 4.16% in [8] and -3.28% in experiment [9].

For the compound `O=C(Nc1cc(-c2ccccc2)nn1-c1ccccc1F)c1ccc([N+](=O)[O-])cc1`, the inhibition in experiment [1] was 9.2%; in experiment [2], -6.29%; in [3], -4.55%; in experiment [4] it was 24.5%; in experiment [5] it was 2.96%; in experiment [6], -1.82%. Besides, the inhibition is 7.68% in [7], -2.66% in experiment [8] and -0.319% in [9].

`CO[C@H]1CC=C2CCN3CCC4=C(CC(=O)OC4)[C@]23C1`: the inhibition in experiment [1] is -7.01%; in [2], -2.5%; in experiment [3], -1.81%; in experiment [4], -0.258%; in experiment [5], -5.96%; in experiment [6], 5.26%. The values for the inhibition in experiment [7], in experiment [8] and in experiment [9] were 1.14%, -3.1% and -6.82%, respectively.

For `N#Cc1ccc(O[C@@H]2c3ccccc3C[C@H]2N2CCC[C@@H](N)C2)c(Cl)c1`, the inhibition in [1] is -4.18%; in experiment [2], -4.87%; in experiment [3], 18.8%; in [4], 3.87%; in [5], 3.73%; in experiment [6], -4.66%. The inhibition is 0.102% in experiment [7], 13.1% in [8] and -1.13% in experiment [9].

On to `Cc1nnc2ccc(-c3cccc(C(F)(F)F)c3)nn12`, for which the inhibition was -6.43% in experiment [1]; -2.84% in experiment [2]; 5.5% in experiment [3]; 22% in [4]; -0.86% in [5]; 9.3% in experiment [6]. Besides, the results for the inhibition in [7], in experiment [8] and in experiment [9] were -2.78%, 1.34% and -4.72%, respectively.

With `N#Cc1cccc(-c2nc(-c3cccnc3)no2)c1`, the inhibition in experiment [1] was -9.43%; in [2], -8.21%; in [3], -5.18%; in experiment [4], -1.08%; in [5], -2.39%; in experiment [6], -5.03%. Also, the results for the inhibition in [7], in experiment [8] and in [9] were -6.2%, 2.53% and -2.96%, respectively.

In the case of `Cc1c(F)cccc1[C@H]1COC(N)=N1`, the inhibition in [1] was 12.2%; in experiment [2], -8.55%; in [3], 11.7%; in [4], 14.6%; in experiment [5], -0.86%; in experiment [6] it was 5.02%. Besides, the inhibition in [7] was 32.1%; in experiment [8], 11.3%; in experiment [9], -1.2%.

A word on the inhibition: it is the drop in the measured response relative to a control, in per cent.
